Test results as given in the NIST ThermoML archive (doi:10.1021/je1009619).

Assay: xn = mol fraction of the nth substance listed
Settings: Liquid, Vibrating tube method

CC1=CC[C@H]2C[C@@H]1C2(C)C [(S)-2-pinene] + C=C(C)[C@H]1CC=C(C)CC1
mass density [kg/m3]
Settings | x2 = 0 | x2 = 0.0976 | x2 = 0.1991 | x2 = 0.2983 | x2 = 0.3955 | x2 = 0.5036 | x2 = 0.5967 | x2 = 0.7024 | x2 = 0.8084 | x2 = 0.906
283.15 K, 20000 kPa | 880 | 878.3 | 876.4 | 874.6 | 872.9 | 870.9 | 869.2 | 867.4 | 865.3 | 863.5
283.15 K, 25000 kPa | 883.2 | 881.4 | 879.3 | 877.6 | 875.8 | 873.8 | 872.1 | 870.3 | 868.3 | 866.6
283.15 K, 30000 kPa | 886.3 | 884.3 | 882.4 | 880.5 | 878.7 | 876.7 | 875.1 | 873.1 | 871.3 | 869.2
283.15 K, 35000 kPa | 889.4 | 887.5 | 885.4 | 883.4 | 881.7 | 879.7 | 878 | 876.1 | 873.9 | 871.9
283.15 K, 40000 kPa | 892.5 | 890.4 | 888.5 | 886.5 | 884.7 | 882.7 | 880.9 | 878.9 | 876.5 | 874.4
298.15 K, 20000 kPa | 868.8 | 866.9 | 865.4 | 863.5 | 861.7 | 860 | 858.4 | 856.9 | 855.1 | 853
298.15 K, 25000 kPa | 872.1 | 870.3 | 868.6 | 866.8 | 865 | 863.2 | 861.6 | 859.8 | 858 | 856.1
298.15 K, 30000 kPa | 875.3 | 873.5 | 871.7 | 869.8 | 868.1 | 866.3 | 864.7 | 862.8 | 861 | 859.1
298.15 K, 35000 kPa | 878.6 | 876.7 | 875 | 873.1 | 871.3 | 869.5 | 867.9 | 865.9 | 864.1 | 862.2
298.15 K, 40000 kPa | 881.9 | 880 | 878.1 | 876.3 | 874.5 | 872.6 | 871 | 869 | 867.1 | 865.2
313.15 K, 20000 kPa | 858 | 856.2 | 854.4 | 852.6 | 851 | 849.2 | 847.6 | 845.9 | 844.1 | 842.4
313.15 K, 25000 kPa | 861.3 | 859.5 | 857.7 | 855.9 | 854.3 | 852.5 | 851 | 849.2 | 847.4 | 845.7
313.15 K, 30000 kPa | 864.7 | 862.8 | 861.1 | 859.3 | 857.6 | 855.7 | 854.2 | 852.4 | 850.5 | 848.8
313.15 K, 35000 kPa | 867.9 | 866.2 | 864.5 | 862.6 | 860.9 | 858.9 | 857.4 | 855.6 | 853.8 | 852
313.15 K, 40000 kPa | 871.3 | 869.5 | 867.8 | 866 | 864.2 | 862.2 | 860.6 | 858.8 | 856.9 | 855.1
328.15 K, 20000 kPa | 846.7 | 845.1 | 843.4 | 841.8 | 840.2 | 838.4 | 837 | 835.3 | 833.5 | 832
328.15 K, 25000 kPa | 850.4 | 848.7 | 847 | 845.2 | 843.6 | 841.9 | 840.4 | 838.6 | 836.9 | 835.4
328.15 K, 30000 kPa | 854 | 852.3 | 850.6 | 848.8 | 847.2 | 845.4 | 843.9 | 842.1 | 840.4 | 838.7
328.15 K, 35000 kPa | 857.5 | 855.8 | 854 | 852.3 | 850.6 | 848.8 | 847.3 | 845.5 | 843.7 | 841.9
328.15 K, 40000 kPa | 861.1 | 859.4 | 857.5 | 855.8 | 854.1 | 852.1 | 850.6 | 848.8 | 847.1 | 845.3
343.15 K, 20000 kPa | 835.9 | 834.4 | 832.8 | 831.2 | 829.6 | 827.9 | 826.5 | 824.8 | 823.1 | 821.6
343.15 K, 25000 kPa | 839.7 | 838.1 | 836.5 | 834.9 | 833.4 | 831.7 | 830.2 | 828.4 | 826.8 | 825.2
343.15 K, 30000 kPa | 843.8 | 842.1 | 840.4 | 838.8 | 837.1 | 835.4 | 834 | 832.1 | 830.4 | 828.8
343.15 K, 35000 kPa | 847.7 | 846 | 844.2 | 842.5 | 840.9 | 839.1 | 837.6 | 835.9 | 834.1 | 832.2
343.15 K, 40000 kPa | 851.4 | 849.6 | 847.9 | 846.2 | 844.5 | 842.7 | 841.2 | 839.5 | 837.3 | 835.5
358.15 K, 20000 kPa | 825 | 823.5 | 822.1 | 820.7 | 819.3 | 817.9 | 816.5 | 815.1 | 813.3 | 811.5
358.15 K, 25000 kPa | 829.2 | 827.7 | 826 | 824.6 | 823.1 | 821.6 | 820.2 | 818.7 | 816.9 | 815.3
358.15 K, 30000 kPa | 833.3 | 831.6 | 830 | 828.4 | 826.9 | 825.3 | 823.9 | 822.2 | 820.6 | 818.7
358.15 K, 35000 kPa | 837.4 | 835.7 | 834 | 832.2 | 830.7 | 829 | 827.5 | 825.8 | 824 | 822.4
358.15 K, 40000 kPa | 841.5 | 839.7 | 838 | 836.2 | 834.6 | 832.8 | 831.2 | 829.4 | 827.6 | 825.9
